Test system: 855422-203-R-J1-PDC spheroids with HUVEC/MSC, viability
Assay: Anticancer human tumor 855422-203-R-J1-PDC patient-derived bladder carcinoma cell line growth inhibition [PI3K]
Conditions: for IC50: curve of first compound; for viability, T/C: stronger effect = lower value
Method in brief: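 Tumor cells were combined with HUVEC and MSCs into spheroids, then dosed with PI3K-inhibitor combinations over half-log ranges capped near clinical Cmax or 10 microM.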

[1] = second compound 0.0316 µM, first compound 0.0316 µM
[2] = second compound 0.0316 µM, first compound 0.1 µM
[3] = second compound 0.1 µM, first compound 0.0316 µM
[4] = second compound 0.1 µM, first compound 0.1 µM
[5] = second compound 0.316 µM, first compound 0.0316 µM
[6] = second compound 0.316 µM, first compound 0.1 µM
[7] = second compound 1 µM, first compound 0.0316 µM
[8] = second compound 1 µM, first compound 0.1 µM
[9] = second compound 3.16 µM, first compound 0.0316 µM
[10] = second compound 3.16 µM, first compound 0.1 µM
[11] = second compound 10 µM, first compound 0.0316 µM
[12] = second compound 10 µM, first compound 0.1 µM
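Note: agents incubated with spheroids for one week before read-out.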
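Throughout, for viability, T/C: 100% = DMSO vehicle-treated control wells.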

For CC(=O)c1c(C)c2cnc(Nc3ccc(N4CCNCC4)cn3)nc2n(C2CCCC2)c1=O + CC(Nc1ncnc2nc[nH]c12)c1cc2cccc(Cl)c2c(=O)n1-c1ccccc1, the IC50 (second compound 0.0316 µM) was greater than 0.1 µM, the IC50 (second compound 0.1 µM) was greater than 0.1 µM and the IC50 (second compound 0.316 µM) was greater than 0.1 µM. For the same compound, the IC50 (second compound 1 µM) was greater than 0.1 µM, the IC50 (second compound 3.16 µM) was greater than 0.1 µM and the IC50 (second compound 10 µM) was 0.0654 µM. For the same compound, the viability, T/C (second compound 0.0316 µM, first compound 0.000316 µM) was 106%, the viability, T/C (second compound 0.0316 µM, first compound 0.001 µM) was 95.8% and the viability, T/C (second compound 0.0316 µM, first compound 0.00316 µM) was 105%. For the same compound, the viability, T/C (second compound 0.0316 µM, first compound 0.01 µM) was 93.4%, the viability, T/C [1] was 100% and the viability, T/C [2] was 79%. For the same compound, the viability, T/C (second compound 0.1 µM, first compound 0.000316 µM) was 111%, the viability, T/C (second compound 0.1 µM, first compound 0.001 µM) was 92.5% and the viability, T/C (second compound 0.1 µM, first compound 0.00316 µM) was 105%. For the same compound, the viability, T/C (second compound 0.1 µM, first compound 0.01 µM) was 99.8%, the viability, T/C [3] was 94.4% and the viability, T/C [4] was 76.2%. It also gave a viability, T/C (second compound 0.316 µM, first compound 0.000316 µM) of 101%, a viability, T/C (second compound 0.316 µM, first compound 0.001 µM) of 108% and a viability, T/C (second compound 0.316 µM, first compound 0.00316 µM) of 110%. For the same compound, the viability, T/C (second compound 0.316 µM, first compound 0.01 µM) was 95.3%, the viability, T/C [5] was 105% and the viability, T/C [6] was 81.3%. For the same compound, the viability, T/C (second compound 1 µM, first compound 0.000316 µM) was 91.9%, the viability, T/C (second compound 1 µM, first compound 0.001 µM) was 102% and the viability, T/C (second compound 1 µM, first compound 0.00316 µM) was 102%. It also gave a viability, T/C (second compound 1 µM, first compound 0.01 µM) of 101%, a viability, T/C [7] of 95.9% and a viability, T/C [8] of 73.9%. It also gave a viability, T/C (second compound 3.16 µM, first compound 0.000316 µM) of 98.7%, a viability, T/C (second compound 3.16 µM, first compound 0.001 µM) of 96.4% and a viability, T/C (second compound 3.16 µM, first compound 0.00316 µM) of 101%. It also gave a viability, T/C (second compound 3.16 µM, first compound 0.01 µM) of 93.2%, a viability, T/C [9] of 85.4% and a viability, T/C [10] of 54%. For the same compound, the viability, T/C (second compound 10 µM, first compound 0.000316 µM) was 84.7%, the viability, T/C (second compound 10 µM, first compound 0.001 µM) was 84.3% and the viability, T/C (second compound 10 µM, first compound 0.00316 µM) was 80%. For the same compound, the viability, T/C (second compound 10 µM, first compound 0.01 µM) was 73.9%, the viability, T/C [11] was 74.3% and the viability, T/C [12] was 36.9%.

CNC(=O)c1ccc(N2C(=S)N(c3ccc(C#N)c(C(F)(F)F)c3)C(=O)C2(C)C)cc1F + CC(Nc1ncnc2nc[nH]c12)c1cc2cccc(Cl)c2c(=O)n1-c1ccccc1 gave an IC50 (second compound 0.0316 µM) greater than 10 µM, an IC50 (second compound 0.1 µM) greater than 10 µM and an IC50 (second compound 0.316 µM) greater than 10 µM. It also gave an IC50 (second compound 1 µM) greater than 10 µM, an IC50 (second compound 3.16 µM) greater than 10 µM and an IC50 (second compound 10 µM) greater than 10 µM. The viability, T/C [1] was 111%, the viability, T/C [2] was 93% and the viability, T/C (second compound 0.0316 µM, first compound 0.316 µM) was 109%. For the same compound, the viability, T/C (second compound 0.0316 µM, first compound 1 µM) was 89.1%, the viability, T/C (second compound 0.0316 µM, first compound 3.16 µM) was 86.2% and the viability, T/C (second compound 0.0316 µM, first compound 10 µM) was 75.4%. It also gave a viability, T/C [3] of 117%, a viability, T/C [4] of 91.1% and a viability, T/C (second compound 0.1 µM, first compound 0.316 µM) of 104%. It also gave a viability, T/C (second compound 0.1 µM, first compound 1 µM) of 86.6%, a viability, T/C (second compound 0.1 µM, first compound 3.16 µM) of 74.3% and a viability, T/C (second compound 0.1 µM, first compound 10 µM) of 68.5%. It also gave a viability, T/C [5] of 96.9%, a viability, T/C [6] of 105% and a viability, T/C (second compound 0.316 µM, first compound 0.316 µM) of 102%. It also gave a viability, T/C (second compound 0.316 µM, first compound 1 µM) of 80.2%, a viability, T/C (second compound 0.316 µM, first compound 3.16 µM) of 76.5% and a viability, T/C (second compound 0.316 µM, first compound 10 µM) of 63.1%. For the same compound, the viability, T/C [7] was 97.4%, the viability, T/C [8] was 102% and the viability, T/C (second compound 1 µM, first compound 0.316 µM) was 106%. It also gave a viability, T/C (second compound 1 µM, first compound 1 µM) of 91.4%, a viability, T/C (second compound 1 µM, first compound 3.16 µM) of 73% and a viability, T/C (second compound 1 µM, first compound 10 µM) of 69.1%. It also gave a viability, T/C [9] of 100%, a viability, T/C [10] of 100% and a viability, T/C (second compound 3.16 µM, first compound 0.316 µM) of 100%. The viability, T/C (second compound 3.16 µM, first compound 1 µM) was 84.3%, the viability, T/C (second compound 3.16 µM, first compound 3.16 µM) was 76% and the viability, T/C (second compound 3.16 µM, first compound 10 µM) was 77.7%. For the same compound, the viability, T/C [11] was 89%, the viability, T/C [12] was 80.9% and the viability, T/C (second compound 10 µM, first compound 0.316 µM) was 95.8%. For the same compound, the viability, T/C (second compound 10 µM, first compound 1 µM) was 81%, the viability, T/C (second compound 10 µM, first compound 3.16 µM) was 77.4% and the viability, T/C (second compound 10 µM, first compound 10 µM) was 68.4%.

Cn1cnc2c(F)c(Nc3ccc(Br)cc3Cl)c(C(=O)NOCCO)cc21 + CC(Nc1ncnc2nc[nH]c12)c1cc2cccc(Cl)c2c(=O)n1-c1ccccc1 was tested, and the IC50 (second compound 0.0316 µM) was greater than 3 µM, the IC50 (second compound 0.1 µM) was greater than 3 µM and the IC50 (second compound 0.316 µM) was 2.38 µM. The IC50 (second compound 1 µM) was 2.17 µM, the IC50 (second compound 3.16 µM) was 1.65 µM and the IC50 (second compound 10 µM) was 0.529 µM. It also gave a viability, T/C (second compound 0.0316 µM, first compound 0.00949 µM) of 116%, a viability, T/C (second compound 0.0316 µM, first compound 0.03 µM) of 90.7% and a viability, T/C (second compound 0.0316 µM, first compound 0.0949 µM) of 114%. The viability, T/C (second compound 0.0316 µM, first compound 0.3 µM) was 87.9%, the viability, T/C (second compound 0.0316 µM, first compound 0.949 µM) was 78.6% and the viability, T/C (second compound 0.0316 µM, first compound 3 µM) was 50.4%. For the same compound, the viability, T/C (second compound 0.1 µM, first compound 0.00949 µM) was 109%, the viability, T/C (second compound 0.1 µM, first compound 0.03 µM) was 97% and the viability, T/C (second compound 0.1 µM, first compound 0.0949 µM) was 104%. It also gave a viability, T/C (second compound 0.1 µM, first compound 0.3 µM) of 93.8%, a viability, T/C (second compound 0.1 µM, first compound 0.949 µM) of 90.5% and a viability, T/C (second compound 0.1 µM, first compound 3 µM) of 50.1%. For the same compound, the viability, T/C (second compound 0.316 µM, first compound 0.00949 µM) was 91.2%, the viability, T/C (second compound 0.316 µM, first compound 0.03 µM) was 100% and the viability, T/C (second compound 0.316 µM, first compound 0.0949 µM) was 101%. The viability, T/C (second compound 0.316 µM, first compound 0.3 µM) was 103%, the viability, T/C (second compound 0.316 µM, first compound 0.949 µM) was 80.2% and the viability, T/C (second compound 0.316 µM, first compound 3 µM) was 42.4%. The viability, T/C (second compound 1 µM, first compound 0.00949 µM) was 86.9%, the viability, T/C (second compound 1 µM, first compound 0.03 µM) was 96.3% and the viability, T/C (second compound 1 µM, first compound 0.0949 µM) was 103%. For the same compound, the viability, T/C (second compound 1 µM, first compound 0.3 µM) was 88.1%, the viability, T/C (second compound 1 µM, first compound 0.949 µM) was 79% and the viability, T/C (second compound 1 µM, first compound 3 µM) was 38.7%. The viability, T/C (second compound 3.16 µM, first compound 0.00949 µM) was 97%, the viability, T/C (second compound 3.16 µM, first compound 0.03 µM) was 96.5% and the viability, T/C (second compound 3.16 µM, first compound 0.0949 µM) was 100%. The viability, T/C (second compound 3.16 µM, first compound 0.3 µM) was 87.3%, the viability, T/C (second compound 3.16 µM, first compound 0.949 µM) was 67.3% and the viability, T/C (second compound 3.16 µM, first compound 3 µM) was 31.8%. The viability, T/C (second compound 10 µM, first compound 0.00949 µM) was 85.9%, the viability, T/C (second compound 10 µM, first compound 0.03 µM) was 74.1% and the viability, T/C (second compound 10 µM, first compound 0.0949 µM) was 70.9%. It also gave a viability, T/C (second compound 10 µM, first compound 0.3 µM) of 58.6%, a viability, T/C (second compound 10 µM, first compound 0.949 µM) of 41.6% and a viability, T/C (second compound 10 µM, first compound 3 µM) of 21.4%.

— PubChem BioAssay AID1963967 (Molecular Pharmacology Branch, DTP, NCI, 2024)
